Among the test systems are SNB-75 CNS; OVCAR-8 ovarian; SR leukemia; HCT-15 colon; OVCAR-5 ovarian; SF-539 CNS; K-562 leukemia; EKVX NSCLC; A549 NSCLC; OVCAR-3 ovarian.
Test in all cases: DTP human tumour cell line panel, 48 h

SMILES strings stand for the structures. Where “and” joins values, the source holds several entries; their conditions need not be identical. Equal values may be shown once.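 Results reflect a 48-hour exposure of cells in 96-well plates to compound at five concentrations. GI50 marks 50% less growth. Definition used: TGI = concentration required for complete inhibition of growth.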

As a reminder, the TGI is the concentration at which net growth stops. Read a low TGI as more potent growth arrest. Usually GI50 stands for the concentration at which growth is held to half of that of the control.

In the case of `CNC(=O)OCc1nc(SC2CCCCO2)n(C)c1COC(=O)NC` (stereo unspecified), the TGI in the assay on SNB-75 CNS, in the assay with OVCAR-8 ovarian, with SR leukemia, in the assay with HCT-15 colon, in the assay on OVCAR-5 ovarian and with SF-539 CNS was above 100 µM in each case. In addition, the TGI in the assay on K-562 leukemia, in the assay with EKVX NSCLC, in the assay on A549 NSCLC and in the assay on OVCAR-3 ovarian was above 100 µM throughout.
Take `Cc1ccncc1.[O]=[Ge].[O]=[Ge].[O]=[Ge].[O]=[Ge].[O]=[Ge].[O]=[Ge][OH].[O]=[Ge][OH]`: the GI50 with SNB-75 CNS, in the assay with OVCAR-8 ovarian, in the assay with SR leukemia, in the assay on HCT-15 colon, in the assay on OVCAR-5 ovarian and with SF-539 CNS was above 100 µM in each case. In addition, the GI50 in the assay on K-562 leukemia, in the assay on EKVX NSCLC, in the assay with A549 NSCLC and in the assay with OVCAR-3 ovarian was above 100 µM in each case. For the same compound, the TGI in the assay on SNB-75 CNS, in the assay with OVCAR-8 ovarian, in the assay with SR leukemia, with HCT-15 colon, in the assay with OVCAR-5 ovarian and with SF-539 CNS was above 100 µM throughout. Further, the TGI with K-562 leukemia, in the assay with EKVX NSCLC, in the assay with A549 NSCLC and in the assay on OVCAR-3 ovarian was above 100 µM in each case.
`CC(C)NC[C@@H](C(=O)N1CCN(c2ncnc3c2[C@H](C)C[C@H]3O)CC1)c1ccc(Cl)cc1`: the GI50 in the assay with SNB-75 CNS was 0.285 µM and 0.213 µM; in the assay on OVCAR-8 ovarian it was above 100 µM; with SR leukemia, > 10 µM and 13 µM; with HCT-15 colon it was > 10 µM and 44.8 µM; with OVCAR-5 ovarian, > 10 µM and 29.8 µM; in the assay with SF-539 CNS it was 0.401 µM and 0.396 µM. Also, the GI50 in the assay on K-562 leukemia is > 10 µM and 48.1 µM; in the assay with EKVX NSCLC, above 10 µM; with A549 NSCLC, > 10 µM and 5.05 µM; in the assay on OVCAR-3 ovarian, > 10 µM and 12.3 µM. Besides, the TGI with SNB-75 CNS was > 10 µM and 5.44 µM; in the assay on OVCAR-8 ovarian it was above 100 µM; in the assay on SR leukemia, above 71.5 µM; with HCT-15 colon, above 100 µM; in the assay on OVCAR-5 ovarian, above 100 µM; with SF-539 CNS it was > 10 µM and 40.1 µM. Moreover, the TGI is above 100 µM in the assay on K-562 leukemia, above 10 µM in the assay on EKVX NSCLC, above 100 µM with A549 NSCLC and above 100 µM in the assay with OVCAR-3 ovarian.
On to `COc1cccc(NC(=O)CC(=O)N2N=C(N(CCC#N)c3ccc(Cl)cc3)CC2c2ccccc2)c1` (stereo unspecified), for which the TGI with SNB-75 CNS, in the assay with OVCAR-8 ovarian, in the assay with SR leukemia, in the assay with HCT-15 colon, in the assay with OVCAR-5 ovarian and with SF-539 CNS was above 100 µM each time. Further, the TGI in the assay with K-562 leukemia, in the assay on EKVX NSCLC, in the assay with A549 NSCLC and with OVCAR-3 ovarian was above 100 µM each time.
Regarding `COc1nc(NC2OCC(OC(C)=O)C(OC(C)=O)C2OC(C)=O)c(N=CC=Nc2c(NC3OCC(OC(C)=O)C(OC(C)=O)C3OC(C)=O)nc(OC)n(C)c2=O)c(=O)n1C` (stereo unspecified), the TGI in the assay with SNB-75 CNS, with OVCAR-8 ovarian, with SR leukemia, in the assay with HCT-15 colon, with OVCAR-5 ovarian and in the assay on SF-539 CNS was above 100 µM each time. The TGI with K-562 leukemia, with EKVX NSCLC, in the assay with A549 NSCLC and in the assay on OVCAR-3 ovarian was above 100 µM each time.
As to `O=C(c1ccccc1)C1N=NCC1c1ccc([N+](=O)[O-])cc1` (stereo unspecified), the TGI was 69.2 µM with SNB-75 CNS; above 100 µM with OVCAR-8 ovarian; 84.7 µM with SR leukemia; above 100 µM with HCT-15 colon; above 100 µM in the assay with OVCAR-5 ovarian; above 100 µM in the assay on SF-539 CNS. For the same compound, the TGI in the assay on K-562 leukemia is above 100 µM; in the assay with EKVX NSCLC it was above 100 µM; with A549 NSCLC it was above 100 µM; with OVCAR-3 ovarian, 48.4 µM.
Turning to `COC1(C(=O)N[C@@H](C)c2ccc(-n3cc(F)cn3)nc2)CCC(c2nc(C)cc(Nc3cc(C)[nH]n3)n2)CC1` (stereo partly specified), the GI50 is 0.196 µM with SNB-75 CNS; 3.74 µM in the assay on OVCAR-8 ovarian; 6.14 µM with SR leukemia; 2.93 µM in the assay with HCT-15 colon; 1.4 µM in the assay with OVCAR-5 ovarian; 0.314 µM with SF-539 CNS. Besides, the GI50 was 3.27 µM in the assay with K-562 leukemia, 0.688 µM with EKVX NSCLC, 1.78 µM in the assay with A549 NSCLC and 3.13 µM in the assay on OVCAR-3 ovarian. In addition, the TGI in the assay on SNB-75 CNS was 0.848 µM; in the assay with OVCAR-8 ovarian, 25.5 µM; in the assay with SR leukemia, above 100 µM; in the assay on HCT-15 colon, 13.3 µM; in the assay with OVCAR-5 ovarian, 12.5 µM; with SF-539 CNS, 1.56 µM. In addition, the TGI was above 100 µM in the assay on K-562 leukemia, 2.94 µM in the assay on EKVX NSCLC, 16.3 µM in the assay with A549 NSCLC and 20.6 µM in the assay with OVCAR-3 ovarian.
Regarding `CC(C)C(=O)Nc1nc2nc[nH]c2c(=O)[nH]1`, the TGI in the assay with SNB-75 CNS, in the assay with OVCAR-8 ovarian, with SR leukemia, in the assay on HCT-15 colon, in the assay with OVCAR-5 ovarian and with SF-539 CNS was above 100 µM each time. Moreover, the TGI in the assay on K-562 leukemia, in the assay with EKVX NSCLC, in the assay on A549 NSCLC and in the assay on OVCAR-3 ovarian was above 100 µM in each case.
Take `CNC(=O)c1cncc(/C=C/c2ccccc2C)c1`: the GI50 with SNB-75 CNS is above 20.7 µM; in the assay with OVCAR-8 ovarian, above 25 µM; with SR leukemia it was above 25 µM; in the assay on HCT-15 colon it was above 25 µM; with OVCAR-5 ovarian, above 25 µM; with SF-539 CNS, above 25 µM. Moreover, the GI50 in the assay with K-562 leukemia, in the assay with EKVX NSCLC, in the assay with A549 NSCLC and in the assay with OVCAR-3 ovarian was above 25 µM throughout. Also, the TGI with SNB-75 CNS, with OVCAR-8 ovarian, with SR leukemia, in the assay on HCT-15 colon, with OVCAR-5 ovarian and with SF-539 CNS was above 25 µM each time. Also, the TGI in the assay with K-562 leukemia, in the assay on EKVX NSCLC, with A549 NSCLC and with OVCAR-3 ovarian was above 25 µM throughout.
With `O=CNc1c(Cl)cc2c(c1Cl)Cc1cc([N+](=O)[O-])ccc1-2`, the GI50 with SNB-75 CNS is 2.84 µM; with OVCAR-8 ovarian it was 11.6 µM; in the assay on SR leukemia it was 2.61 µM; in the assay on HCT-15 colon, 3.27 µM; in the assay with OVCAR-5 ovarian, 16.6 µM; in the assay on SF-539 CNS, 6.15 µM. Also, the GI50 in the assay with K-562 leukemia was 1.38 µM; with EKVX NSCLC, 0.359 µM; in the assay with A549 NSCLC, 4.55 µM; with OVCAR-3 ovarian, 1.34 µM. For the same compound, the TGI with SNB-75 CNS is 21.5 µM; with OVCAR-8 ovarian, above 100 µM; in the assay on SR leukemia it was above 63.1 µM; with HCT-15 colon, above 100 µM; in the assay on OVCAR-5 ovarian, above 100 µM; in the assay on SF-539 CNS it was above 100 µM. The TGI in the assay with K-562 leukemia was above 100 µM; in the assay with EKVX NSCLC it was 13.6 µM; with A549 NSCLC it was above 100 µM; in the assay with OVCAR-3 ovarian, 8.87 µM.
As to `COc1cc(C2c3cc4c(cc3[C@@H](Nc3ccc(C#N)cc3)C3COC(=O)[C@H]23)OCO4)cc(OC)c1O` (stereo partly specified), the GI50 in the assay with SNB-75 CNS was 0.787 µM; with OVCAR-8 ovarian, 1.51 µM; in the assay on SR leukemia it was 0.468 µM; with OVCAR-5 ovarian it was 2.96 µM and 3.3 µM; with SF-539 CNS, 0.431 µM; in the assay on K-562 leukemia, 0.987 µM and 1.85 µM. The GI50 in the assay on EKVX NSCLC was 2.21 µM and 3.71 µM; with A549 NSCLC, 0.107 µM; in the assay on OVCAR-3 ovarian, 1.81 µM and 2.14 µM. The TGI is 42.6 µM and 56.3 µM in the assay with SNB-75 CNS; 50 µM and > 100 µM in the assay with SR leukemia; 18 µM with HCT-15 colon; 31.7 µM and 59.9 µM and > 100 µM in the assay on OVCAR-5 ovarian; 11.3 µM and 3.64 µM with SF-539 CNS; 50 µM and 12.8 µM and > 100 µM in the assay with EKVX NSCLC. In addition, the TGI with A549 NSCLC is 6.1 µM and 2.35 µM and 2.96 µM; in the assay with OVCAR-3 ovarian, 50 µM and 5.33 µM and 5.32 µM.
For `CN(CCCN)CCCNc1nc2ccccc2c2[nH]c3ccccc3c12`, the GI50 in the assay with SNB-75 CNS was 0.272 µM; in the assay with OVCAR-8 ovarian, 0.0825 µM; in the assay on SR leukemia it was 0.381 µM; in the assay on HCT-15 colon it was 0.446 µM; with OVCAR-5 ovarian it was 0.18 µM; in the assay with SF-539 CNS, 0.324 µM. Further, the GI50 is 0.0638 µM with K-562 leukemia, 1.44 µM in the assay with EKVX NSCLC, 0.16 µM in the assay with A549 NSCLC and 0.359 µM in the assay with OVCAR-3 ovarian. The TGI in the assay with SNB-75 CNS was determined as 0.943 µM; in the assay with OVCAR-8 ovarian, 0.496 µM; in the assay on SR leukemia it was 2.25 µM; in the assay with HCT-15 colon, 9.68 µM; in the assay on OVCAR-5 ovarian, 0.652 µM; with SF-539 CNS, 0.943 µM. Moreover, the TGI in the assay with K-562 leukemia came out at 0.346 µM; with EKVX NSCLC it was 8.2 µM; in the assay on A549 NSCLC, 2.22 µM; in the assay with OVCAR-3 ovarian, 1.35 µM.
Take `CCN(CC)c1ccc(C(=C2C=CC(=[N+](CC)Cc3cccc(S(=O)(=O)O)c3)C=C2)c2ccc(N(CC)Cc3cccc(S(=O)(=O)O)c3)cc2)cc1`: the GI50 with SNB-75 CNS was 2.75 µM; with OVCAR-8 ovarian it was 4.8 µM; in the assay with HCT-15 colon, 28.5 µM; in the assay on OVCAR-5 ovarian, 20.8 µM; with SF-539 CNS, 3.57 µM; in the assay on K-562 leukemia, 3.85 µM. Further, the values for the GI50 with EKVX NSCLC, in the assay on A549 NSCLC and in the assay with OVCAR-3 ovarian were 6.82 µM, 4.28 µM and 5.21 µM, respectively. Further, the TGI was 17.3 µM in the assay on SNB-75 CNS; above 100 µM in the assay with OVCAR-8 ovarian; 0.643 µM with SR leukemia; above 100 µM with HCT-15 colon; above 100 µM in the assay with OVCAR-5 ovarian; 23.3 µM in the assay on SF-539 CNS. The TGI in the assay on K-562 leukemia is 97.5 µM; with EKVX NSCLC it was above 100 µM; in the assay with A549 NSCLC, above 100 µM; with OVCAR-3 ovarian, 37.4 µM.

Values taken from PubChem BioAssay (NCI).
